Measured values published in patent US7902421B2, “Animal model for schizophrenia” (London Health Sciences Centre Research Inc., priority 2003, dated 2011).
Entries after “also recorded” stand apart in the source; their conditions may differ.

Tests used:
[1] = target: T1, (Homo sapiens, UniProt P08138); details: cited from earlier work
T1 sequence (P08138 29-427): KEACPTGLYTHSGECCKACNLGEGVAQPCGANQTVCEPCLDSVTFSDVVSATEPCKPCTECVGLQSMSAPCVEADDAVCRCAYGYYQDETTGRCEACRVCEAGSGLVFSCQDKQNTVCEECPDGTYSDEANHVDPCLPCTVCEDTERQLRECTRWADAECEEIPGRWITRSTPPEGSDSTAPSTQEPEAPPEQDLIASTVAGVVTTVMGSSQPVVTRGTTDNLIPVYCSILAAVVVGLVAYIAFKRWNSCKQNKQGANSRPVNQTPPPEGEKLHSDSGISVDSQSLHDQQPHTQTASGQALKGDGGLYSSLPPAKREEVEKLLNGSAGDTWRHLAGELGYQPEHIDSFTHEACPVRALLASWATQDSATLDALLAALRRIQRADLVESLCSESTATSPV

prefrontal cortex = test: Histological examination and immunohistochemistry of brains of neonatally injected rats; format: in vivo, rat
Method: […] Brains were removed, cryoprotected in 18% buffered-sucrose for 24 hours at 4° C., and sectioned in a freezing microtome 40 μm thick sections were processed for Nissl staining and immunohistochemistry as described previously (Rajakumar, Elisevich and Flumerfelt, Journal of Comparative Neurology 1994, 350:324-336).

[2] = tested on: subplate cells in the developing prefrontal cortex; test: Apoptosis of subplate cells after neonatal intracerebral injections of nerve growth factor (activated caspase-3 immunoreactivity); format: in vivo, rat; details: for apoptosis of subplate cells / neurons: intracerebral injections into developing prefrontal cortex of postnatal rats (250 ng/μl/site, postnatal days 3 and 4)
Method: Neonatal rat pups received daily injections of nerve growth factor into the developing prefrontal cortex at 2, 3 and 4 days of age (similarly other animals such as mice or monkeys can be injected at the appropriate neonatal or fetal period of prefrontal cortical development characterized by the expression of p75 receptor in subplate cells). Scalp of rat pups were sprayed with a topical anesthesia, and 1 μl of nerve growth factor ([…] in saline, human recombinant Nerve growth factor, Cedarlane Laboratories) was pressure injected with a 30 gauges needle into the developing prefrontal cortex on each side. Injections were made 1.5 mm in front of the bregma which is visible through the scalp, 0.5 mm lateral to the midline and 1.5 mm deep to the scalp surface. Injections were made slowly over 10 sec and the needle was left in situ for an additional 30 sec. Pups were kept separated from their mother for approximately 20 min during injecttion sessions. During this time they were kept warm. Control rat pups received exactly similar treatment but injected with saline. Experimental and control rats were marked with an ear punch on the right and left ears, respectively. After injection session pups were returned to their mother and allowed to grow under standard conditions.
Both neonatally nerve growth factor or saline injected rats were anesthetized with an intraperitoneal injection of sodium pentobarbital (Somnatol, 40 mg/kg) at 5 weeks or 10 weeks of age and perfused transcardially with a solution containing 4% freshly depolymerized paraformaldehyde in 0.1 M phosphate buffer at pH 7.4. Brains were removed, cryoprotected in 18% buffered-sucrose for 24 hours at 4° C., and sectioned in a freezing microtome 40 μm thick sections were processed for Nissl staining and immunohistochemistry as described previously (Rajakumar, Elisevich and Flumerfelt, Journal of Comparative Neurology 1994, 350:324-336).

[3] = tested on: subcortical dopamine responsivity; test: Behavioral testing (sniffing, locomotion, rearing) after saline or d-amphetamine challenge; format: in vivo, rat
Method: Animals at 5 or 10 weeks of age were habituated to the testing area for three hours each on 2 consecutive days. On the 3rd day, animals were habituated for an hour and then injected with saline (0.2 ml, l.p.) and their behaviors were monitored visually for an hour. They were then injected with d-amphetamine (5 mg/kg, l.p.) and their behaviors were monitored for an additional one-hour. An examiner who was blind to the animal groups performed testing. Several behavioral measures including locomotion, rearing (vertical activity), sniffing and grooming were monitored. Different cohorts of animals were used for testing at 5 and 10 weeks. For stress response, animals were submerged in water at room temperature for 5 min in a large container, then they were placed in a plexiglass box and their behaviors (similar to those described above) were visually monitored,
For novelty induced stress response, animals were subjected to novel environment or object and their motor behaviors were monitored. Behavioral data was analyzed using standard statistical methods (Rajakumar, Laurier, Niznik and Stoessi, Synapse 1997, 26: 199-208).

[4] = tested on: dopaminergic fibers from the lower layers of the prefrontal cortex; test: Intracerebral stereotaxic injections of 6-hydroxydopamine eliminating dopaminergic fibers in adult rats; format: in vivo, rat; details: unpublished work by the inventor
Description: In the normal brain, dopaminergic fibers are distributed mainly in lower layers of the prefrontal cortex, Dopaminergic-fibers are abnormally distributed within the prefrontal cortex in schizophrenic patients with very low density in the lower layers (Akil, Pierri, Whitehead, Edgar, Mohila, Sampson and Lewis, American Journal of Psychiatry 1999, 156:1580-1589). […] Based on this work the inventor believed that abnormal laminar distribution of dopaminergic fibers in the prefrontal cortex may be responsible for the enhanced dopaminergic activity seen in schizophrenia. While abnormal distribution of dopaminergic fibers has been described in the prefrontal cortex in schizophrenic brains (Akil, Pierri, Whitehead, Edgar, Mohila, Sampson and Lewis, American Journal of Psychiatry 1999, 156:1580-1589), this has never implicated in the manifestation of dopaminergic hyperactivity.

[5] = adult rat, neonatal injections, vs control
[6] = at 5 weeks, saline or d-amphetamine challenge, n=30
[7] = at 10 weeks, d-amphetamine challenge, n=36
[8] = at 5 weeks, d-amphetamine 5 mg/kg i.p. vs saline, control and experimental animals

Pro-nerve growth factor
increased affinity for p76 receptors [1]: > 1000 fold

nerve growth factor
parvalbumin neuronal number in the prefrontal cortex (prefrontal cortex; adult rat, control vs NGF-treated): comparable | GABA transporter-1 immunoreactive synapses in the prefrontal cortex (prefrontal cortex; [5]): fewer; also recorded: markedly diminished | density of tyrosine hydroxylase labeled (dopaminergic) fibers in lower layers of the prefrontal cortex (prefrontal cortex; [5]): considerably decreased; also recorded: decreased density | laminar distribution of parvalbumin immunoreactive terminals in the prefrontal cortex (prefrontal cortex; [5]): altered laminar distribution of parvalbumin immunoreactive terminals | GABA transporter-1 immunoreactive synapses in the prefrontal cortex (prefrontal cortex; adult rat, neonatal injections, vs control, listed as NGF): markedly diminished | density of tyrosine hydroxylase labeled (dopaminergic) fibers in lower layers of the prefrontal cortex (prefrontal cortex; adult rat, neonatal injections, vs control, listed as Nerve growth factor): decreased dopaminergic fibers | gross structure throughout the brain (prefrontal cortex; histological examination of neonatally injected rats): apparently normal gross structure | laminar distribution of GABAergic terminals in the prefrontal cortex (prefrontal cortex; injected animals as adults): altered laminar distribution | lateral and third ventricular size (prefrontal cortex; neonatally injected rats in comparison to control animals): moderately enlarged; also recorded: relatively larger | volume of lateral ventricles (prefrontal cortex; rat sacrificed at 6 months of age, neonatal injections, vs control): increased considerably | apoptosis of subplate cells / neurons [2]: resulting in apoptosis of the subplate cells; also recorded: specifically induced apoptosis of subplate neurons | apoptosis of subplate cells / neurons ([2]; listed as NGF): induces apoptosis | effect on the hippocampus or other parts of the cerebral cortex ([2]; method of injection adopted, neonatal period): does not affect the hippocampus or any other parts of the cerebral cortex | mechanical, ischemic or inflammatory lesion ([2]; postnatal rat brain, intracerebral injections): without causing any substantial mechanical, ischemic or inflammatory lesion | immunoreactivity of activated caspase-3 in subplate cells ([2]; six day-old rat pup, daily intracerebral injections on postnatal days 2, 3 and 4): undergoing apoptosis | subcortical dopaminergic responsivity ([3]; adult (after the 8th week), injections of d-amphetamine): enhanced subcortical dopamine responsivity; also recorded: increased subcortical dopaminergic responsivity | response to changes in the environment ([3]; after the 8th week, neonatally injected rats): prolonged and enhanced response | total duration of locomotor behavior, experimental vs control animals [3, 6]: no differences | total duration of rearing behavior, experimental vs control animals [3, 6]: no differences | total duration of sniffing behavior, experimental vs control animals [3, 6]: no differences | total duration of locomotor behavior, experimental vs control animals [3, 7]: significantly increased locomotor behavior | total duration of rearing behavior, experimental vs control animals [3, 7]: significantly increased rearing | total duration of sniffing behavior, experimental vs control animals ([3]; at 10 weeks, saline or d-amphetamine challenge, n=36): no differences | growth and behavioral patterns, experimental vs control rats ([3]; until 8 weeks of age): comparable growth and behavioral patterns

NCCc1cc(O)c(O)cc1O [6-hydroxydopamine]
subcortical dopaminergic activity to systemic injections of amphetamine [4]: markedly enhanced subcortical dopaminergic activity

C[C@H](N)Cc1ccccc1 [d-amphetamine, reference compound]
effect of amphetamine injection on sniffing [3, 8]: increases sniffing in both groups of animals | effect of amphetamine injection on total duration of locomotion [3, 8]: increases the total duration of locomotion in both groups of animals | effect of amphetamine injection on sniffing ([3]; at 10 weeks, d-amphetamine 5 mg/kg i.p. vs saline, control and experimental animals): increases sniffing in both groups of animals
